Legend:
[1] = tested on: plasma proteins; conditions: cited from earlier work
[2] = tested on: Fepi; assay: Intermittent Light Stimulation (ILS) induced seizures in the photosensitive reflex epileptic chicken model; assay type: in vivo
Procedure: During 21 days, they were exposed to ILS (3 minutes) once a day.
Behavioural activities were observed and time recorded for each phase of the paroxysmal manifestation during controlled intermittent light stimulation: • T0: ILS starts • T1 (time in seconds): neck myoclonus starts • T2 (time in seconds): convulsive phase starts • T3 (time in seconds): convulsive phase ends
The first day they were tested for control and all had ILS induced seizures. […]
During the last 10 days, none of the animals was treated.
The influence of the treatment on the stimulus locked myoclonus and generalized convulsions of the photosensitive GRS was evaluated using generalized linear models implemented in the function glm of the software R, version 2.9.0. The number of seizures for each animal over a given phase of the experiment (with treatment and following treatment) was modeled using a binomial distribution, and linked to factors using the logit function. The delay for seizure initiation, the duration of the myoclonus and the duration of the convulsions were modeled using gamma distributions, and linked to the factors using the identity function. Sex was included as an additive co-factor in the analyses but not significant differences were found.

[3] = cited from earlier work

SMILES: CC[C@@H](C(N)=O)N1CCCC1=O [(S)-a-ethyl-2-oxo-1-pyrrolidine acetamide]
- bound to plasma proteins [1]: less than 10%
- anticonvulsant effect ([2]; chicken model of the invention): has an anticonvulsant effect
- persistence of the effect after the injection period ([2]; last 10 days without treatment): the effect partially persisting few days after the injection period
- seizure duration (on average) ([2]; treated (50, 100 or 200 mg/Kg) homozygous, placebo 16.2 s, p-value 1 e-08): 10.7 s
- dose range over which the pharmacokinetics are linear ([3]; in vivo): 500 to 5000 mg
- time to peak plasma concentrations ([3]; oral administration to fasted subjects): one
- decrease of Cmax by food ([3]; oral, with food): 20%
- delay of Tmax by food ([3]; oral, with food): 1.5 h
- oral bioavailability ([3]; tablets): 100%
- time to steady state ([3]; twice-daily dosing): 2 days
